Assay results published in patent US20240174695A1, “Spirocycle Containing Bicyclic Heteroaryl Compounds” (Protego Biopharma, Inc., priority 2022, published 2024).

tested on: Recombinant amyloidogenic full length light chain protein WIL-FL T46L; assay: Differential Scanning Fluorimetry Assay (thermal shift assay); assay type: binding; conditions: Thermal Shift Protein Stability Kit (Biotium), 96-well plates; protein and compounds incubated at RT for 30 min before adding the dye; further: test concentration or dose not given here
Procedure, shortened: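 E. coli-expressed full-length WIL-FL T46L light chain pre-incubated with compound 30 min at RT before dye addition. Tm obtained by curve fitting of the dye thermal-melt signal; value is ΔTm, compound minus vehicle, in °C.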

Compound	DSF temperature shift: [Tm]compound−[Tm]vehicle
Cc1noc(N2CCC3(CC2)CN(CCc2nc4c(C)cc(OC[C@H](C)c5ccccc5)cn4n2)C(=O)N3)n1 [Compound 108]	***** (>2.5° C.=*****)
Cc1cc(OC[C@H](C)c2ccccc2)cn2nc(CCN3CC4(CCN(c5nc(F)cc(F)n5)CC4)NC3=O)nc12 [Compound 109]	**** (>1.5-2.5° C.=****)
Cc1cc(OC[C@H](C)c2ccccc2)cn2nc(CCN3CC4(CCN(c5cc(F)nc(F)n5)CC4)NC3=O)nc12 [Compound 110]	**** (>1.5-2.5° C.=****)
Cc1cc(OC[C@H](C)c2ccccc2)cn2nc(CCN3CC4(CCN(c5ccnc(F)n5)CC4)NC3=O)nc12 [Compound 111]	**** (>1.5-2.5° C.=****)
Cc1cc(OC[C@H](C)c2ccccc2)cn2nc(CCN3CC4(CCN(c5ncc(F)cn5)C4)NC3=O)nc12 (stereo partly drawn) [Compound 112]	**** (>1.5-2.5° C.=****)
Cc1cc(OC[C@H](C)c2ccccc2)cn2nc(CCN3CC4(CCN(c5ncc(F)cn5)CC4)NC3=O)nc12 [Compound 113]	***** (>2.5° C.=*****)
Cc1cc(OC[C@H](C)c2ccccc2)cn2nc(CCN3CC4(CCN(c5ncc(F)cn5)CC4)OC3=O)nc12 [Compound 114]	*** (>1-1.5° C.=***)
Cc1cc(OC[C@H](C)c2ccccc2)cn2nc(CCN3CC4(CCN(c5ncccn5)CC4)NC3=O)nc12 [Compound 115]	**** (>1.5-2.5° C.=****)
Cc1cc(OC[C@H](C)c2ccccc2)cn2nc(CCN3CC4(CCN(c5nccn6cnnc56)CC4)OC3=O)nc12 [Compound 116, (R)-8-([1,2,4]triazolo[4,3-a]pyrazin-8-yl)-3-(2-(8-methyl-6-(2-phenylpropoxy)-[1,2,4]triazolo[1,5-a]pyridin-2-yl)ethyl)-1-oxa-3,8-diazaspiro[4.5]decan-2-one]	**** (>1.5-2.5° C.=****)
Cc1cc(OC[C@H](C)c2ccccc2)cn2nc(CCN3CC4(CCN(c5nccnc5F)CC4)NC3=O)nc12 [Compound 117]	**** (>1.5-2.5° C.=****)
Cc1ncnc(N2CCC3(CC2)CN(CCc2nc4c(C)cc(OC[C@H](C)c5ccccc5)cn4n2)C(=O)N3)c1C [Compound 118]	**** (>1.5-2.5° C.=****)
Cc1cc(OC[C@H](C)c2ccccc2)cn2nc(CCN3CC4(CCN(c5ncns5)CC4)NC3=O)nc12 [Compound 119]	**** (>1.5-2.5° C.=****)
Cc1cc(OC[C@H](C)c2ccccc2)cn2nc(CCN3CC4(CCN(c5ncn(C)n5)CC4)NC3=O)nc12 [Compound 120]	**** (>1.5-2.5° C.=****)
Cc1ccc(N2CCC3(CC2)CN(CCc2nc4c(C)cc(OC[C@H](C)c5ccccc5)cn4n2)C(=O)N3)nn1 [Compound 121]	**** (>1.5-2.5° C.=****)
Cc1nnc(N2CCC3(CC2)CN(CCc2nc4c(C)cc(OC[C@H](C)c5ccccc5)cn4n2)C(=O)N3)s1 [Compound 122]	**** (>1.5-2.5° C.=****)
Cc1nc(N2CCC3(CC2)CN(CCc2nc4c(C)cc(OC[C@H](C)c5ccccc5)cn4n2)C(=O)N3)no1 [Compound 123]	**** (>1.5-2.5° C.=****)
Cc1nc(N2CCC3(CC2)CN(CCc2nc4c(C)cc(OC[C@H](C)c5ccccc5)cn4n2)C(=O)N3)ns1 [Compound 124]	**** (>1.5-2.5° C.=****)
Cc1cc(OC[C@H](C)c2ccccc2)cn2nc(CCN3CC4(CCN(S(=O)(=O)c5cccnc5)CC4)NC3=O)nc12 [Compound 125]	**** (>1.5-2.5° C.=****)
Cc1cc(OC[C@H](C)c2ccccc2)cn2nc(CCN3CC4(CN(c5cccc(C(=O)O)n5)C4)NC3=O)nc12 [Compound 126]	*** (>1-1.5° C.=***)
Cc1cc(OC[C@H](C)c2ccccc2)cn2nc(CCN3CC4(CN(c5ncc(F)cn5)C4)NC3=O)nc12 [Compound 127]	***** (>2.5° C.=*****)

Compound	DSF temperature shift: [Tm]compound−[Tm]vehicle
Cc1ccc(N2CCC3(CC2)CN(CC(O)c2nc4c(C)cc(OCC5(c6ccccc6)CC5)cn4n2)C(=O)N3)cn1 (stereo not drawn) [Compound 128]	**** (>1.5-2.5° C.=****)
Cc1cnc(N2CCC3(CC2)CN(CCc2nc4c(C)cc(OC[C@H](C)c5ccccc5)cn4n2)C(=O)N3)s1 [Compound 129]	***** (>2.5° C.=*****)
CCOC(=O)c1ccc(N2CCC3(CC2)CN(CC(O)c2nc4c(C)cc(OCC5(c6ccccc6)CC5)cn4n2)C(=O)N3)cn1 (stereo not drawn) [Compound 130]	*** (>1-1.5° C.=***)
CNC(=O)c1cc(N2CCC3(CC2)CC(=O)N(CC(C)(O)c2nc4c(C)cc(OC[C@H](C)c5ccccc5)cn4n2)C3)ccn1 (stereo partly drawn) [Compound 131]	*** (>1-1.5° C.=***)
CNC(=O)c1cc(N2CCC3(CC2)CN(CC(C)(O)c2nc4c(C)cc(OC[C@H](C)c5ccccc5)cn4n2)C(=O)N3)ccn1 (stereo partly drawn) [Compound 132]	**** (>1.5-2.5° C.=****)
CNC(=O)c1cc(N2CCC3(CC2)CN(CC(O)c2nc4c(C)cc(OCC5(c6ccccc6)CC5)cn4n2)C(=O)N3)ccn1 (stereo not drawn) [Compound 133]	***** (>2.5° C.=*****)
CNC(=O)c1cc(N2CCC3(CC2)CN(Cc2nc4c(C)cc(OC[C@H](C)c5ccccc5)cn4n2)C(=O)N3)ccn1 [Compound 134]	**** (>1.5-2.5° C.=****)
COC(=O)c1cccc(N2CC3(CN(CCc4nc5c(C)cc(OC[C@H](C)c6ccccc6)cn5n4)C(=O)N3)C2)n1 [Compound 135]	***** (>2.5° C.=*****)
COC(=O)c1cnc(N2CCC3(CC2)CN(CC(O)c2nc4c(C)cc(OCC5(c6ccccc6)CC5)cn4n2)C(=O)N3)c2nccn12 (stereo not drawn) [Compound 136]	***** (>2.5° C.=*****)
COC(=O)c1cc(N2CC3(CN(CC(O)c4nc5c(C)cc(OC[C@H](C)c6ccccc6)cn5n4)C(=O)N3)C2)ccn1 (stereo partly drawn) [Compound 137]	***** (>2.5° C.=*****)
COC(CN1CC2(CCN(c3ccnc(O)c3)CC2)NC1=O)c1nc2c(C)cc(OC[C@H](C)c3ccccc3)cn2n1 (stereo partly drawn) [Compound 138]	**** (>1.5-2.5° C.=****)
COc1ncccc1N1CCC2(CC1)CN(CCc1nc3c(C)cc(OC[C@H](C)c4ccccc4)cn3n1)C(=O)N2 [Compound 139]	*** (>1-1.5° C.=***)
COc1cccc(N2CCC3(CC2)CN(CC(O)c2nc4c(C)cc(OCC5(c6ccccc6)CC5)cn4n2)C(=O)N3)n1 (stereo not drawn) [Compound 140]	**** (>1.5-2.5° C.=****)
COc1ccc(N2CCC3(CC2)CN(CCc2nc4c(C)cc(OC[C@H](C)c5ccccc5)cn4n2)C(=O)N3)c(C)n1 [Compound 141]	** (>0.5-1° C.=**)
COc1cc(N2CCC3(CC2)CN(CC(O)c2nc4c(C)cc(OCC5(c6ccccc6)CC5)cn4n2)C(=O)N3)ccn1 (stereo not drawn) [Compound 142]	***** (>2.5° C.=*****)
COc1cc(N2CCC3(CC2)CN(CCc2nc4c(C)cc(OC[C@H](C)c5ccccc5)cn4n2)C(=O)N3)ccn1 [Compound 143]	**** (>1.5-2.5° C.=****)
C[C@@H](COc1cc(CO)c2nc(C(O)CN3CC4(CN(c5ccnc(O)c5)C4)NC3=O)nn2c1)c1ccccc1 (stereo partly drawn) [Compound 144]	***** (>2.5° C.=*****)
C[C@@H](COc1cc(CO)c2nc(C(O)CN3CC4(CN(c5ccnc(O)c5)C4)OC3=O)nn2c1)c1ccccc1 (stereo partly drawn) [Compound 145]	***** (>2.5° C.=*****)
C[C@]1(c2ccccc2)CCN(c2cc(CO)c3nc(C(O)CN4CC5(CN(c6ccnc(O)c6)C5)NC4=O)nn3c2)C1 (stereo partly drawn) [Compound 146]	***** (>2.5° C.=*****)
